Experiments:
NCK2 = NCK2 phase separation in vitro, 60 mM NaCl, Coomassie quantification (Fig. 5E); set-up: species or system mouse; conditions: Amount/Total
Method: E. coli BL21 (DE3) cells were transformed with mNCK2 constructs in the pET-30b vector and grown overnight at 37 °C in LB with 100 µg/ml kanamycin. The next day, cultures were expanded in LB with kanamycin until they reached their exponential growth phase (OD600 of around 1.0). Protein production was then induced by the addition of 1 mM IPTG (Bio Basic) and incubation at 16 °C overnight with agitation. Cultures were pelleted with a centrifugation step (3200g at 4 °C, 30 min), washed with ice-cold PBS, and pellets were kept at −80 °C. Bacteria were thawed in GST buffer (20 mM Tris-HCl pH 7.5, 0.5 M NaCl, 1 mM EDTA, and 1 mM DTT (Millipore Sigma)) with cOmplete protease inhibitors (Millipore Sigma) and disrupted with sonication. Lysates were then centrifuged at 20,000g for 20 min at 4 °C and the supernatant loaded to a GSTrap FF 1 mL column (GE Healthcare). Following a washing step with 10 mL GST–Buffer, the GST-Tagged proteins were eluted with 15 mM GSH (Bio-basic) and cleaved in a solution using purified recombinant His-tagged TEV protease (Thermo Fisher Scientific). Tag-free NCK2 proteins were further purified using a 1 ml HisTrap FF column (GE Healthcare) to remove free His-tagged GST and TEV as well as remaining impurities. The purified proteins were concentrated with Amicon 10 K filters (Millipore Sigma) and their concentration assessed using Coomassie and BCA assays (Thermo Fisher Scientific).
Purified NCK2 proteins were diluted in GST buffer to identical concentrations. At 500 mM NaCl present in this buffer, all NCK2 constructs were completely soluble. Phase transition was initiated by dilution in imidazole buffer (10 mM imidazole (Bio Basic) pH 7.0, 1 mM DTT, 1 mM EGTA (Millipore Sigma), 1 mM MgCl2, 2.5% Glycerol (Bioshop Canada), 3% Dextran (Millipore Sigma)) containing various amount of NaCl so that the final concentration of NaCl would correspond to those in Supplementary Fig. 7B. For all the other experiments, the phase transition of NCK2 proteins was assessed at 60 mM NaCl. NCK2 at 8 μg/μL (40 μg in 5 μL) was added to 35 μL imidazole buffer in a plastic 96-well plate that had first been pretreated with a 0.2% bovine serum albumin solution to reduce nonspecific binding. The plate assay was then incubated overnight (24 h) at 4 °C before imaging. Phase-contrast images of each well were acquired using a Zeiss Axio Vert.A1 inverted microscope with an LD A-Plan 40×/0.55 Ph1 objective (Zeiss) in Zen Blue software (version 2.3.69.1000). After imaging, the soluble protein fraction (supernatant) was recovered for sodium dodecyl sulfate polyacrylamide gel electrophoresis analysis. Protein droplets attached at the bottom of the well (pellet) were washed once with imidazole buffer with 60 mM NaCl and then solubilized in Laemmli buffer. The pellets to supernatant fractions were used to quantify phase transition at 60 mM NaCl (7 replicates) via Coomassie protein quantification. The involvement of weak hydrophobic interactions in NCK2 driven phase transition was assessed using 1,6-Hexanediol (Millipore Sigma) at 60 mM NaCl. Imidazole buffer containing 0%, 1%, 5%, and 10% 1,6-Hexanediol was first prepared and phase transition was initiated and analyzed as described above. Finally, the competition of SH3-2 dependent homotypic NCK2 interaction with an SH3-2 binding peptide was assessed in the presence of 5, 15, 45, 90, 150, or 300 μM PAK1 peptide ([…]) in imidazole buffer with 60 mM NaCl. The impact of PAK1 peptide addition was observed via phase contrast microscopy as described above.

BEM1-1 = assay: DHFR-PCA on solid medium, bait BEM1-1 (Fig. 1B); type: cell-based, Saccharomyces cerevisiae; conditions: bait BEM1-1, label = prey; for medrep (log2 median colony size normalized to plate background, PCA score): 2-8 replicates; for Ratio (SH3-deleted/WT medrep): only significant differences showed, PPIs completely lost have a ratio of 0.1 and the gained PPIs 2.5
Source text: (§1) Supplement 41467_2021_21873_MOESM8_ESM.xlsx, sheet "Fig1B" | column: medsize; medrep; Ratio; Score

BBC1 = assay: DHFR-PCA on solid medium, bait BBC1 (Fig. 1B); type: cell-based, Saccharomyces cerevisiae; conditions: bait BBC1, label = prey; for medrep (log2 median colony size normalized to plate background, PCA score): 2-4 replicates; for Ratio (SH3-deleted/WT medrep): only significant differences showed, PPIs completely lost have a ratio of 0.1 and the gained PPIs 2.5
Source text: as §1

ABP1 = assay: DHFR-PCA on solid medium, bait ABP1 (Fig. 1B); type: cell-based, Saccharomyces cerevisiae; conditions: bait ABP1, label = prey; 2-4 replicates
Source text: as §1

[1] = test system: 575 putative partners (preys) of 22 WT SH3-containing proteins; assay: DHFR-PCA on solid medium, WT and SH3-deleted baits (Fig. 1B); type: cell-based, Saccharomyces cerevisiae; set-up: key to Score: 0: SH3-independent; 1: SH3-dependent PPIs; 2: SH3-inhibited PPIs; conditions: for medrep (log2 median colony size normalized to plate background, PCA score): label = prey; for Ratio (SH3-deleted/WT medrep): only significant differences shown, PPIs completely lost have a ratio of 0.1, gained PPIs 2.5
Source text: To assess the requirement of SH3 domains for PPIs in vivo, we first measured binary interactions between 22 WT SH3-containing proteins (Supplementary Fig. 1A) as baits and 575 putative partners from their interconnected signaling networks using the dihydrofolate reductase protein–fragment complementation assay (DHFR-PCA) in the budding yeast Saccharomyces cerevisiae. About 33% (202/607) of the PPIs detected were described before, mostly by direct methods (Supplementary Fig. 1B, C)[11]. We repeated the experiments with baits in which the SH3s were individually replaced with a flexible linker by genome editing (SH3 domain deletion/stuffing, Fig. 1A). The stuffer DNA sequence ([…]) codes for a small flexible poly-Gly with Ser peptide ([…]) that is inspired by previous experiments[12],[13]. About a third of the SH3-containing protein interactome is qualitatively or quantitatively SH3-dependent (171 PPIs out of 607, Fig. 1B and Supplementary Fig. 1B, C). We validated the vast majority of the quantitative changes in low-throughput experiments and excluded that this is simply due to changes in protein abundance in most cases (Supplementary Fig. 1D–G). SH3-binding motifs[14] are more frequent in the SH3-dependent PPI partners when compared to sequences from random proteins, SH3-independent PPI partners or PPI partners that are stronger or gained following SH3 deletions (p values = 1.5 × 10^−17, 0.0038 and 2.1 × 10^−08, respectively; Mann–Whitney test, one-tailed, Fig. 1C). The changes we measure are therefore enriched for PPIs that depend on the direct interactions of the domains with the PPI partners.
The complete list of strains, primers, and gRNAs used in this study can be found in Supplementary Tables 1–3. All constructed yeast strains were validated by polymerase chain reaction (PCR) and confirmed by Sanger sequencing of the locus of interest. Bait strains for the DHFR-PCA experiments were constructed as follows. The genes of interest were fused at their genomic 3′ end by replacing the stop codon with a linker ([…]), the DHFR F[1,2] followed by a smaller linker (GGGGS), a 1× FLAG tag ([…]) and the NATMX4 resistance cassette via homologous recombination (all amplified from pAG25-DHFR[1,2]-linker-FLAG). The set of 615 prey strains (DHFR F[3] fusions in the BY4742 background) were retrieved from the Yeast Protein Interactome Collection[43] with the exception of 73 that were reconstructed (Supplementary Tables 1 and 2). Knockout strains were taken from the yeast knockout collection except for ABP1, BEM1, BZZ1, and SLA1, which were reconstructed by replacing the ORFs with the NATMX4 resistance cassette by homologous recombination in the BY4741 background.
Yeast SH3 domain genomic sequences were replaced by CRISPR–Cas9 genome editing. Each SH3 domain (as defined by the SMART database V8.0 except for Ysc84 SH3 (as defined by PROSITE), see Source Data for all SH3 sequences and Supplementary Table 1 for primers used) was specifically targeted by one gRNA[46]. Yeast competent cells were co-transformed with a pCAS plasmid (Addgene plasmid 60847[47]) expressing both the gRNA of interest and Streptococcus pyogenes Cas9[46] and a donor DNA sequence (stuffer) with 60 bp homology arms surrounding the SH3 DNA sequence. The Stuffer DNA was either PCR amplified or digested from a plasmid. The stuffer DNA sequence ([…]) codes for a small flexible linker ([…]) inspired by protein linkers used in structural biology[12],[13]. This type of linker is frequently used for fusing proteins without affecting the structure of the linked proteins.
The overall DHFR-PCA pipeline is based on Tarassov et al.[43] and the procedures have also been published as a visualized protocol. The screens were performed with robotically manipulated pin tools (BM5-SC1, S&P Robotics Inc.). First, the preys were cherry-picked from 96-well plates to omnitrays in a 384 format on YPD + HPH solid media. […]

[2] = bait SLA1-2, DHFR-PCA, Replicates 4 (2 for YCR009C, YDR388W)
[3] = bait SLA1-3, DHFR-PCA, Replicates 4 (2 for YCR009C, YDR388W, YIL033C)

| Substance | medrep (log2 median colony size normalized to plate background, PCA score) (BBC1) | Ratio (SH3-deleted/WT medrep) (BBC1) | medrep (log2 median colony size normalized to plate background, PCA score) (ABP1) | medrep (log2 median colony size normalized to plate background, PCA score) [1, 2] | Score ([1]; bait SLA1-2, label = prey) | Ratio (SH3-deleted/WT medrep) ([1]; bait SLA1-2, label = prey) | medrep (log2 median colony size normalized to plate background, PCA score) [1, 3] | Score ([1]; bait SLA1-3, label = prey) | other results |
| --- | --- | --- | --- | --- | --- | --- | --- | --- | --- |
| NCK2 | – | – | – | – | – | – | – | – | Ratio (NCK2; Phase Pellet, replicate 1): 0.2548; Ratio (NCK2; Phase Pellet, replicate 2): 0.3742; Ratio (NCK2; Phase Pellet, replicate 3): 0.4878; Ratio (NCK2; Phase Pellet, replicate 4): 0.2596; Ratio (NCK2; Phase Pellet, replicate 5): 0.2564; Ratio (NCK2; Phase Pellet, replicate 6): 0.2454; Ratio (NCK2; Phase Pellet, replicate 7): 0.2712; Ratio (NCK2; Phase Soluble, replicate 1): 0.7452; Ratio (NCK2; Phase Soluble, replicate 2): 0.6258; Ratio (NCK2; Phase Soluble, replicate 3): 0.5122; Ratio (NCK2; Phase Soluble, replicate 4): 0.7404; Ratio (NCK2; Phase Soluble, replicate 5): 0.7436; Ratio (NCK2; Phase Soluble, replicate 6): 0.7546; Ratio (NCK2; Phase Soluble, replicate 7): 0.7288 |
| YDR265W | – | – | – | – | – | – | – | – | medrep (log2 median colony size normalized to plate background, PCA score) (BEM1-1): 2.347; Ratio (SH3-deleted/WT medrep) (BEM1-1): 2.5 |
| YDR388W (ETVTALYDYQAQAAGDLSFPAGAVIEIVQRTPDVNEWWTGRYNGQQGVFPGNYVQLNK) | 1.395 | 0.1 | 4.711 | 1.88 | 1 | 0.1 | 1.88 | 0 | – |
| YER166W | – | – | 3.035 | 2.422 | 1 | 0.1 | 2.422 | 0 | – |
| YFR024C-A (PKAVALYSFAGEESGDLPFRKGDVITILKKSDSQNDWWTGRVNGREGIFPANYVELV) | 1.926 | 0.1 | 5.192 | – | – | – | 4.788 | 0 | – |
| YHR016C (SATPTAVALYNFAGEQPGDLAFKKGDVITILKKSDSQNDWWTGRTNGKEGIFPANYVRVS) | – | – | 4.9581 | 1.614 | 1 | 0.4201 | 3.842 | 0 | – |
| YIL062C | 4.09 | – | 5.265 | – | – | – | 4.44 | 0 | – |
| YJL210W | – | – | – | – | – | – | – | – | medrep (log2 median colony size normalized to plate background, PCA score) (BEM1-1): 1.8146; Ratio (SH3-deleted/WT medrep) (BEM1-1): 2.5 |
| YLR370C | 4.024 | – | 5.077 | 2.335 | 1 | 0.5146 | 4.537 | 0 | – |
| YMR026C | – | – | – | – | – | – | – | – | medrep (log2 median colony size normalized to plate background, PCA score) (BEM1-1): 3.625; Ratio (SH3-deleted/WT medrep) (BEM1-1): 2.5 |
| YNL138W | 2.102 | 0.1 | 5.358 | 2.731 | 1 | 0.1 | 2.731 | 0 | – |
| YOR181W | 1.945 | 0.4732 | 4.4673 | 2.241 | 1 | 0.4606 | 4.865 | 0 | – |
| YPR184W | – | – | 3.5 | 2.1199 | 1 | 0.1 | 2.1199 | 0 | – |

From PMC7954794, “Protein context shapes the specificity of SH3 domain-mediated interactions in vivo” (Nature Communications, 2021)
